The values that follow come from patent publication US7445892B2, “Method of testing anticancer agent-sensitivity of tumor cells” (Eisai Co., Ltd., priority 2000, dated 2008).

What all share (assay type): cell-based, human
The test system of one assay is LX-1. Kind of assay: Gene expression analysis by quantitative PCR. As to conditions: susceptible strain LX-1, 8 μM, 0-12 hours, FIG. 3. The method, then:
(§1) Similarly, E7070 was added to the media of an E7070-susceptible strain LX-1 and an E7070-resistant strain LX-1-E2 at a concentration of 8 μM and the cells were cultured. Cells were recovered after 0, 3, 6 and 12 hours. Total RNA was extracted from these cells and subjected to the subsequent analyses. LX-1 (Cancer Chemotherapy Center, Japan Foundation for Cancer Research, Tokyo, Japan) was a cell strain derived from human parvicellular lung cancer, and LX-1-E2 is an E7070-resistant substrain obtained by culturing this LX-1 in the presence of E7070 with gradually increasing the E7070 concentration. In order to confirm that variations in gene expression obtained in Example 2 reflected the susceptibility of a tumor cell to E7070, changes of gene expression in E7070-susceptible cells and E7070-resistant cells were examined by quantitative PCR using RNA shown in Example 1, SYBR Green and ABI Prism 7700 Sequence Detection System (Perkin-Elmer Applied Biosystems). […] The mRNA level in each specimen was quantified by measuring fluorescence intensity. In comparison of two or more specimens, quantitative values were corrected based on the mRNA level of GAPDH in each specimen. The relationships between the drug treatment time and each mRNA level are shown in FIGS. 2 to 5, where the quantified value at 0 hour after the drug treatment was used as a control (100%).

In assay [1] the test system is LX-1-E2. Kind of assay: Gene expression analysis by quantitative PCR. The settings on record: resistant strain LX-1-E2, 8 μM, 0-12 hours, FIG. 5. Here is the method: as §1
Another assay deals with HCT116-C9. Kind of assay: Cell growth inhibition by the MTT method. As to conditions: HCT116-C9, 72 hours culture, FIG. 1. The method, then: (§2) The used cell strains HCT116-C9, HCT116-C9-C1, LX-1 and LX-1-E2 were cultured for 72 hours with addition of E7070. The actual operation was performed by using CellTiter 96 Non-Radioactive Cell Proliferation Assay (Promega, Madison, Wis.) according to the attached operation manual.
(In general: Tetrazolium dyes change colour on reduction, which living cells bring about.)

Assay [2] concerns LX-1-E2. Kind of assay: Cell growth inhibition by the MTT method. The settings on record: resistant strain LX-1-E2, drug concentration 8 μM, 72 hours culture. The method, then: as §2
A further assay relates to MDA-MB-435. Kind of assay: Gene expression analysis using GeneChip in three kinds of cancers. The settings on record: MDA-MB-435, 8 μM for 12 hours. Here is the method:
(§3) Gene expression changes in three kinds of cancers of HCT116-C9 (human colon cancer cell strain), MDA-MB-435 (human breast cancer cell strain) and MOLT-4 (human T lymphoblastic leukemia cell strain) caused by E7070 (treated with 8 μM for 12 hours) were examined by using GeneChip in the same manner as in Example 2. A list of the genes of which expression was enhanced 1.8 times or more in common in the three kinds of cancers is shown in Table 3. Further, a list of the genes of which expression was inhibited 1.8 times or more in common in the three kinds of cancers is shown in Table 4. Since the genes of which expression varies (enhanced or reduced) in common in these strains of the three kinds of cancers established from cancer patients with totally different genetic backgrounds are very likely to be more closely associated with the E7070 antitumor action mechanism common to the tumor cells, it is considered that they can be used as valid markers when susceptibility of a tumor cell to E7070 and its related compounds is tested.

For the next assay, the system named is MOLT-4. Described as above. As to conditions: MOLT-4, 8 μM for 12 hours. The method, then: as §3

On to `NS(=O)(=O)c1ccc(S(=O)(=O)Nc2cccc3c(Cl)c[nH]c23)cc1` [E7070, N-(3-chloro-7-indolyl)-1,4-benzenedisulfonamide], for which the “mRNA level variation of S80343, U07919, U11791, M95809, U18291, U63743, M61764 (corrected by GAPDH)” value was “all the genes except for S80343 showed expression variations” in the assay with LX-1; “U11791 showed an expression change and M95809 and U18291 showed a slight expression change” in the assay on LX-1-E2 [1]. Also, the “susceptibility (cell growth inhibition)” value in the assay on HCT116-C9 was “highest susceptibility”. In addition, in the assay with LX-1-E2 [2], the growth inhibitory effect result is reported as “some growth inhibitory effect”. Further, the “enhancement of expression of the genes listed in Table 3” value in the assay on MDA-MB-435 and with MOLT-4 was not below 1.8 times in each case. Further, the “inhibition of expression of the genes listed in Table 4” value with MDA-MB-435 and in the assay with MOLT-4 was not below 1.8 times each time.
